# Results reported in patent US10883088B2, “Biological upgrading of hydrocarbon streams with oxygenases” (priority 2017, dated 2021).
# How the values were obtained:
# [1] = molecular target: T1, HugZ (Helicobacter pylori, UniProt O25087); assay: UV-VIS Soret band screen of model porphyrins with HugZ; assay type: biochemical, H. pylori; settings: porphyrin treated with HugZ; UV-VIS absorbance, room temperature; shift vs Control indicates protein-porphyrin interaction
# T1 construct: Expression plasmids were constructed by inserting the gene for each oxygenase into the base vector pET28b; His-tag (N); made in house; host or cells: E. coli BL21-DE3(T1), pET28b
# Text: (§1) UV-VIS spectroscopy was used for initial screening of protein activity against numerous model compounds because each model porphyrin has a characteristic UV-VIS absorbance spectrum. A shift in the wavelength of maximal absorbance, commonly referred to as the “Soret band,” indicates a change in porphyrin conformation or a protein-porphyrin interaction.
# (§2) To prepare crude protein, aliquots were thawed on ice and diluted 4-fold with protein assay buffer (PAB). To isolate purified oxygenases, protein aliquots were thawed on ice and proteins of interest were purified by HIS-tag-Ni-NTA column affinity followed by size exclusion chromatography with PD-10 desalting columns. Purified protein was eluted in PAB, collected in the first 2 mL PD-10 column flow-through fraction. Relative to the initial protein concentration, samples were diluted 4-fold to parallel crude protein samples.
# (§3) Model porphyrin stocks were prepared in porphyrin phosphate buffer (PPB), stored at 4° C. in amber bottles to protect samples from light, and used or discarded within one month.
# (§4) Amber tubes were used for all assays to protect samples from light. Crude and purified protein samples were combined with porphyrin substrates, to achieve final concentrations in Table 4, and total assay volumes were raised to 10 mL with Tris buffer. Absorbance of a 2.4 mL sample was measured in a 1 cm quartz cuvette, at room temperature, 1 nm resolution, and 0.7 sec. integration time on an Evolution201® UV-VIS spectrophotometer with Thermo INSIGHT® software. Samples were incubated for 24 hrs. at room temperature and 75 RPM and their final UV-VIS absorbance spectra was measured. An absorbance baseline was collected using Tris buffer at the beginning of each time point and ≤1% error was observed between technical replicates. Crude, empty pET28b vector (EV) strain lysate protein and PAB only controls were run in parallel with experimental samples (EXP) for each porphyrin.
# [2] = test system: ChuS; assay: UV-VIS Soret band screen of model porphyrins with ChuS; assay type: biochemical, E. coli; settings: porphyrin treated with ChuS; UV-VIS absorbance, room temperature; shift vs Control indicates protein-porphyrin interaction
# Text: as §1, §2, §3, §4
# [3] = molecular target: T2, PigA (Pseudomonas aeruginosa, UniProt G3XCZ8); assay: UV-VIS Soret band screen of model porphyrins with PigA; assay type: biochemical, P. aeruginosa; settings: porphyrin treated with PigA; UV-VIS absorbance, room temperature; shift vs Control indicates protein-porphyrin interaction
# T2 construct: Expression plasmids were constructed by inserting the gene for each oxygenase into the base vector pET28b; His-tag (N); made in house; host or cells: E. coli BL21-DE3(T1), pET28b
# Text: (§5) A shift in the wavelength of maximal absorbance, commonly referred to as the “Soret band,” indicates a change in porphyrin conformation or a protein-porphyrin interaction.
# as §2, §3
# as §4, with “measured.” for “measured. An absorbance baseline was collected using Tris buffer at the beginning of each time point and ≤1% error was observed between technical replicates. Crude, empty pET28b vector (EV) strain lysate protein and PAB only controls were run in parallel with experimental samples (EXP) for each porphyrin.”
# [4] = test system: HmuO; assay: UV-VIS Soret band screen of model porphyrins with HmuO; assay type: biochemical, C. jeikeium; settings: porphyrin treated with HmuO; UV-VIS absorbance, room temperature; shift vs Control indicates protein-porphyrin interaction
# Text: as §5, §2, §3
# as §4, with “measured.” for “measured. An absorbance baseline was collected using Tris buffer at the beginning of each time point and ≤1% error was observed between technical replicates. Crude, empty pET28b vector (EV) strain lysate protein and PAB only controls were run in parallel with experimental samples (EXP) for each porphyrin.”
# [5] = molecular target: T3, IsdG (Staphylococcus aureus, UniProt Q99UW8); assay: UV-VIS Soret band screen of model porphyrins with IsdG; assay type: biochemical, S. aureus; settings: porphyrin treated with IsdG; UV-VIS absorbance, room temperature; shift vs Control indicates protein-porphyrin interaction
# T3 construct: Expression plasmids were constructed by inserting the gene for each oxygenase into the base vector pET28b; His-tag (N); made in house; host or cells: E. coli BL21-DE3(T1), pET28b
# Text: as §1, §2, §3, §4
# [6] = molecular target: T4, IsdI (Staphylococcus aureus, UniProt Q99X56); assay: UV-VIS Soret band screen of model porphyrins with IsdI; assay type: biochemical, S. aureus; settings: porphyrin treated with IsdI; UV-VIS absorbance, room temperature; shift vs Control indicates protein-porphyrin interaction
# T4 construct: Expression plasmids were constructed by inserting the gene for each oxygenase into the base vector pET28b; His-tag (N); made in house; host or cells: E. coli BL21-DE3(T1), pET28b
# Text: as §1, §2, §3, §4
Compound,Soret band wavelength [1] [nm],Soret band wavelength [2],Soret band wavelength [3] [nm],Soret band wavelength [4] [nm],Soret band wavelength [5] [nm],Soret band wavelength [6] [nm]
O=C(O)c1ccc(-c2c3nc(c(-c4ccc(C(=O)O)cc4)c4ccc([n-]4)c(-c4ccc(C(=O)O)cc4)c4nc(c(-c5ccc(C(=O)O)cc5)c5ccc2[n-]5)C=C4)C=C3)cc1.[Ni+2] [Ni(II)-meso-tetra-(4-carboxyphenyl) porphine],400,410/405,404,405,400,400
C[n+]1ccc(-c2c3nc(c(-c4cc[n+](C)cc4)c4ccc([n-]4)c(-c4cc[n+](C)cc4)c4nc(c(-c5cc[n+](C)cc5)c5ccc2[n-]5)C=C4)C=C3)cc1.[Cl-].[Cl-].[Cl-].[Cl-].[Ni+2] [Ni(II)-meso-tetra-(Nmethyl-4-pyridyl) porphine tetrachloride],,440 nm,,440,,
C=CC1=C(C)c2cc3[n-]c(cc4[n-]c(cc5nc(cc1n2)C(C)=C5C=C)c(C)c4CCC(=O)[O-])c(CCC(=O)[O-])c3C.[H+].[H+].[Ni+2] [Ni(II)-protoporphyrin (IX)],417,400 nm,400,400,400,400
"C[n+]1ccc(-c2c3nc(c(-c4cc[n+](C)cc4)c4ccc([n-]4)c(-c4cc[n+](C)cc4)c4nc(c(-c5cc[n+](C)cc5)c5ccc2[n-]5)C=C4)C=C3)cc1.[Cl-].[Cl-].[Cl-].[Cl-].[O]=[V+2] [VO-meso-tetra-(N-methyl-4-pyridyl), VO-meso-tetra-(N-methyl-4-pyridyl) porphine tetrachloride]",,422 nm,,422,,
Fe(III)-meso-tetra-(4-carboxyphenyl) porphine chloride,418,424/420,414,417,410,410
hemin,405,405/400,400,399,390,390
